# Experimental data published in patent US4544740A, “Process for the preparation of 5-(2-bromovinyl)-uridine” (priority 1981, dated 1985).
# Where “and” joins values, the source holds several entries; their conditions need not be identical. Identical values can stand only once. Entries after “also recorded” stand apart in the source; their conditions may differ. Like-named read-outs stand apart in the source and are kept apart here.
# What was measured:
# Water solubility = format: physicochemical; details: i.v. trial limited
# Herpes simplex type 1 = assay: Effect of nucleoside analogues on virus multiplication in cell cultures at concentrations of CTo: Herpes simplex type 1 in HeLa cell culture; format: cell-based, Herpes simplex virus type 1
# Description: The testing of antiviral activity was carried out according to the following considerations:
# According to the literature the major part of antiviral nucleoside analogues is presumed to exert its "antiviral potency" by interfering with the functioning of the host cell which as a result fails to promote intracellular virus multiplication (it is a well known fact that virus multiplication requires a well functioning host cell).
# Effect of nucleoside analogues on virus multiplica-
# tion in cell cultures at concentrations of CTo
# ^1 = type 1 in HeLa cell culture
# [1] = Cytotoxicity of nucleoside analogues in BHK-21 cell cultures; format: cell-based; details: hamster, bhk-21 cells
# From the text: (§1) Cytotoxicity of nucleoside analogues at concentra-
# (§2) tions of CTo and CT50 in various cell cultures in […]
# [2] = Cytotoxicity of nucleoside analogues in RK-13 cell cultures; format: cell-based; details: rabbit, rk-13 cells
# From the text: as §1, §2
# [3] = Cytotoxicity of nucleoside analogues in Vero cell cultures; format: cell-based; details: monkey, vero cells
# From the text: as §1, §2
# [4] = Cytotoxicity of nucleoside analogues in HeLa cell cultures; format: cell-based; details: human, hela cells
# From the text: as §1, §2
# [5] = system: type 1 Herpes simplex virus; assay: Inhibitory effect of nucleoside analogues on multiplication of type 1 Herpes simplex in HeLa cell culture (virus titer, TCID50); format: cell-based, Herpes simplex virus type 1; details: for log TCID50, average: average of individual experiments; for Δ log TCID50, average / Δ log TCID50: difference from control; for antiviral (anti-herpes) effect in words: in vitro, tissue culture
# From the text: (§3) A method was developed for the testing of the antiviral activity of various drugs in solution which is suitable for the exact, sensitive and objective in vitro assay of drug activity exerted on the cells and tissues of both warm-blooded animals and men [Toxicology 16, 59 (1980)]. The method is also suitable for calculating from the test data the highest concentration of the test drug in the tissue culture medium which is not impairing the tissue yet (CTo).
# The difference in the logarithm of virus titers may be considered the objective indicator of the rate of inhibition of virus multiplication.
# tissue culture = assay: Comparative toxicity in tissue culture
# From the text: as §3
# Herpes simplex virus = details: literature; cited from earlier work
# [6] = individual experiments, HeLa, concentration of CTo
# [7] = read-out: CT50 (the source's name) (converted)
smiles,measurement,setting,value
"O=c1[nH]c(=O)n([C@@H]2O[C@H](CO)[C@@H](O)[C@H]2O)cc1/C=C/Br [A, (E)-5-(2-Bromovinyl)-uridine]",water solubility,Water solubility,poor water solubility
same,"Effect on virus multiplication, Herpes simpl.",Herpes simplex type 1,++++
same,CC50,[1],501 µg/mL
same,MNTC,[1],126 µg/mL
same,CC50,[2],501 µg/mL
same,MNTC,[2],39.8 µg/mL
same,CC50,[3],398 µg/mL
same,MNTC,[3],100 µg/mL
same,CC50,[4],398 µg/mL
same,MNTC,[4],100 µg/mL
same,Number of dead/treated animals,"mice; mouse, in vivo, 1000 mg/kg",0/5
same,Number of dead/treated animals,"mice; mouse, in vivo, 1500 mg/kg",0/5
same,Number of dead/treated animals,"mice; mouse, in vivo, ip, 500 mg/kg",0/5
same,Number of dead/treated animals,"mice; mouse, in vivo, ip, 750 mg/kg",0/5
same,Number of dead/treated animals,"mice; mouse, in vivo, ip, 1000 mg/kg",4/5
same,Number of dead/treated animals,"mice; mouse, in vivo, iv, 300 mg/kg",0/5
same,"log TCID50, average","[5]; HeLa, concentration of CTo",2.66
same,"Δ log TCID50, average","[5]; HeLa, concentration of CTo",3.16
same,antiviral (anti-herpes) effect in words,[5]; listed as (E)-5-(2-Bromovinyl)-uridine,very active in inhibiting the multiplication of type 1 Herpes simplex virus
same,antiviral (anti-herpes) effect in words,[5]; listed as (E)-5-(2-bromovinyl)-uridine,marked antiviral effect in vitro; also recorded: significantly reduced
same,antiviral (anti-herpes) effect in words,[5]; listed as ribonucleoside of (E)-5-(2-bromovinyl)-uracil base,similarly high anti-herpes potency
same,log TCID50,[5]; [6],2.77 and 2.5 and 3.0 and 2.33
same,Δ log TCID50,[5]; [6],3.23 and 3.33 and 3.25 and 3.0 and 3.16 and 3.17
same,effect on cells and tissues used for culturing,tissue culture,without impairing the cells and tissues used for culturing
"O=c1[nH]c(=O)n([C@H]2C[C@H](O)[C@@H](CO)O2)cc1/C=C/Br [B, (E)-5-(2-bromovinyl)-2'-deoxy-uridine, reference compound]","Effect on virus multiplication, Herpes simpl.",Herpes simplex type 1,++++
same,MNTC,"[1]; BHK-21, highest concentration not impairing the tissue, read-out: CTo (converted)",316 µg/mL
same,CC50,[1]; [7],794 µg/mL
same,antiviral / anti-herpes activity in words,Herpes simplex virus,marked anti-herpes potency
same,MNTC,"[2]; RK-13, highest concentration not impairing the tissue, read-out: CTo (converted)",20 µg/mL
same,CC50,[2]; [7],794 µg/mL
same,MNTC,"[3]; Vero, highest concentration not impairing the tissue, read-out: CTo (converted)",39.8 µg/mL
same,CC50,[3]; [7],316 µg/mL
same,MNTC,"[4]; HeLa, highest concentration not impairing the tissue, read-out: CTo (converted)",39.8 µg/mL
same,CC50,[4]; [7],251 µg/mL
same,Number of dead/treated animals,"mice; i.p., 500 mg/kg single dose, 24 hours",0/5
same,Number of dead/treated animals,"mice; i.p., 750 mg/kg single dose, 24 hours",2/5
same,Number of dead/treated animals,"mice; i.p., 1000 mg/kg single dose (aqueous suspension), 24 hours",5/5
same,Number of dead/treated animals,"mice; i.v., 300 mg/kg single dose, 24 hours",1/5
same,Number of dead/treated animals,"mice; per os, 1000 mg/kg single dose (aqueous suspension), 24 hours",0/5
same,Number of dead/treated animals,"mice; per os, 1500 mg/kg single dose (aqueous suspension), 24 hours",0/5
same,"log TCID50, average","[5]; HeLa, concentration of CTo",2.26
same,"Δ log TCID50, average","[5]; HeLa, concentration of CTo",3.53
same,antiviral (anti-herpes) effect in words,[5],marked antiviral effect in vitro
same,Δ log TCID50,[5]; [6],3.33 and 3.84 and 3.78 and 3.17
same,effect on cells and tissues used for culturing,tissue culture; at concentrations as low as CTo,without impairing the cells and tissues used for culturing
"O=c1[nH]c(=O)n([C@H]2C[C@H](O)[C@@H](CO)O2)cc1I [C, 5iodo-2deoxy-uridine]",CC50,[1],6.31 µg/mL
same,MNTC,[1],0.1 µg/mL
same,CC50,[2],79.4 µg/mL
same,MNTC,[2],5.01 µg/mL
same,CC50,[3],39.8 µg/mL
same,MNTC,[3],31.6 µg/mL
same,CC50,[4],20 µg/mL
same,MNTC,[4],0.0398 µg/mL
"Nc1nc(=O)n([C@H]2C[C@H](O)[C@@H](CO)O2)cc1I [D, 5iodo-2deoxy-cytidine]",CC50,[4],7.94 µg/mL
same,MNTC,[4],0.01 µg/mL
